The values below come from patent publication US20250319073A1, “COMPOSITIONS AND METHODS FOR THE TREATMENT OF HUNTINGTON’S DISEASE AND HTT PROTEINOPATHIES” (priority 2022, published 2025).

Holding throughout (format): in vivo, mouse
The test system of test [1] is R6/2 mice. The test is described as follows: 18F-FDG PET brain glucose uptake in R6/2 mice. As to the method: (§1) Study Summary—A total of 46 male R6/2 mice and 15 male wild-type littermate control mice (WT) were used in the study. The mice were genotyped and the R6/2 mice were divided into different treatment groups based on their pre-treatment body weight. The treatment with Compound (Ia) (0.5 or 5 mg/kg; 10 ml/kg, intraperitoneally (i.p.), QD) or Vehicle (10 ml/kg, i.p., QD) was started at 4 weeks of age. Body weights were measured before the treatment onset and continued twice a week until the end of the study. Fine motor kinematic analysis and rotarod test were performed at 10 weeks of age and the open field activity and clasping behavior were measured at 12 weeks of age for all mice. At 8 and 12 weeks of age the glucose uptake was measured by ^18F-FDG PET and the striatal metabolites were measured using MR spectroscopy for 9-10 mice per group. At 13 weeks of age 9-10 mice per group were subjected to tissue sample collection, and the brain and blood samples were collected. The blood samples were used to prepare peripheral blood mononuclear cells (PBMCs) on which the flow cytometry/luminescence analysis was performed for following assays: mitochondrial reactive oxygen species (ROS) (MitoSox), and ATP levels (Cell TiterGlow).
^18F-FDG-PET Analysis—At 8 and 12 weeks of age, 9 mice per group were fasted overnight (water allowed ad libitum) to standardize the blood glucose level. […]

The test system of test [2] is R6/2 mice. The test is described as follows: Open field test in R6/2 mice. To be noted: 12 weeks of age. The method, then:
as §1, with “At 13 weeks of age 9-10 mice per group were subjected to tissue sample collection, and the brain and blood samples were collected.” left out, “TiterGlow). […]” for “TiterGlow).”
Open Field Test—At 12 weeks of age all mice were subjected to open field test. […] Mice were placed in the center of the chamber and their behavior was recorded for 30 min in 5-min bins. […]

Test [3] is described as follows: Body weight of R6/2 mice under chronic treatment. The method, then: as §1, with “Summary-A” for “Summary—A”, “TiterGlow). […] Body Weights-Body weights were measured at 4 weeks of age (pre-treatment) and twice a week until the end of the study. […]” for “TiterGlow).”

For `Cc1cc(O)cc(C)c1C[C@H](NC(=O)[C@H](N)CCCNC(=N)N)C(=O)N[C@@H](CCCCN)c1nc(Cc2ccccc2)no1.Cl.Cl` [Compound (Ia), (R)-2-amino-N—((S)-1-(((S)-5-amino-1-(3-benzyl-1,2,4-oxadiazol-5-yl)pentyl)amino)-3-(4-hydroxy-2,6-dimethylphenyl)-1-oxopropan-2-yl)-5-guanidinopentanamide], the “18F-FDG uptake (radioactivity) in olfactory bulb compared to vehicle treated R6/2 mice” value in the test on R6/2 mice [1] (5 mg/kg i.p. QD, 12 weeks of age, p<0.05, Mixed-effects model (REML)) is recorded as “statistically significantly higher radioactivity”. Besides, the “18F-FDG uptake in various brain areas” value in the test with R6/2 mice [1] (i.p. QD, trend, not statistically significant except olfactory bulb) was “increased”. The “total distance traveled in the open field compared to vehicle treated R6/2 mice” value in the test on R6/2 mice [2] (5 mg/kg i.p. QD, p<0.05, One-way ANOVA) is “traveled longer total distance”. In addition, the “total rearing frequency in the open field, between R6/2 groups” value in the test with R6/2 mice [2] (0.5 or 5 mg/kg i.p. QD, p>0.05, One-way ANOVA) is given as “no significant differences”. Further, in test [3] (5 mg/kg i.p. QD), the “body weight compared to vehicle treated R6/2 mice” value is “non-significantly higher level”. Moreover, the “body weight, treated R6/2 groups vs vehicle treated R6/2 mice” value in test [3] (0.5 or 5 mg/kg i.p. QD from 4 to 13 weeks of age, p>0.05, Mixed-effects model (REML)) is given as “no significant differences”.
